# Reference: the NIST ThermoML archive (doi:10.1016/j.jct.2014.04.021)
# ± gives the expanded uncertainty stated by the source.
# Conditions: for Normal melting temperature: Crystal, DTA; for mass density: 101.33 kPa, Liquid, Vibrating tube method
Normal melting temperature [°C],SMILES,other results
92.7 ± 0.4,C[n+]1ccn(CC#N)c1.N#Cc1nc(C(F)(F)F)[n-]c1C#N,
98.6 ± 0.4,OC[C@@H](O)[C@@H](O)[C@H](O)[C@@H](O)CO [D-sorbitol],
94.1 ± 0.4,OC[C@@H](O)[C@H](O)[C@@H](O)CO [xylitol],

# The remaining lines, values behind:
SMILES,Normal melting temperature [°C],other results
CCCCCC[n+]1cccc2ccccc21.O=S(=O)([N-]S(=O)(=O)C(F)(F)F)C(F)(F)F [1-hexylquinolinium bis(trifluoromethylsulfonyl)amide],45 ± 0.4,
CCCCCC[N+]1(C)CCCCC1.O=S(=O)([N-]S(=O)(=O)C(F)(F)F)C(F)(F)F,,mass density (293 K): 1329.5 ± 1.1 kg/m3; mass density (298.15 K): 1325.4 ± 1.1 kg/m3
CCCCCC[n+]1ccc2ccccc2c1.O=S(=O)([N-]S(=O)(=O)C(F)(F)F)C(F)(F)F [N-hexylisoquinolinium bis(trifluoromethylsulfonyl)imide],,mass density (333.2 K): 1349.3 ± 1.8 kg/m3
CCCCn1cc[n+](C)c1.N#CC1=NC(C(F)(F)F)=NC1=C=[N-],,mass density (298.15 K): 1199.65 ± 1.5 kg/m3
